How the values were obtained:
Assay in all cases: relative viability (nuclei count vs DMSO), 5 days (fraction); higher = more cells survive
[1] = compound: C1/C(=C\C2=CC=CS2)/C(=O)/C(=C/C3=CC=CS3)/C1 + CC(C)C[C@H](NC(=O)[C@H](Cc1ccccc1)NC(=O)c1cnccn1)B(O)O [Bortezomib] (partner 0.002 µM)
Procedure, shortened: (§1)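 Values are medians from duplicate plates. Each reflects relative viability, defined as the nuclei count of treated wells over that of vehicle wells. Lung cancer cell lines in 1536-well plates were pin-tool dosed one day after seeding with one drug alone or with a fixed anchor-drug dose plus five library-drug doses (not always all listed) in √10 steps, then fixed, stained and imaged at 4× after 5 days.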

TPCA-1 + Bortezomib = compound: C1=CC(=CC=C1C2=CC(=C(S2)NC(=O)N)C(=O)N)F [TPCA-1] + CC(C)C[C@H](NC(=O)[C@H](Cc1ccccc1)NC(=O)c1cnccn1)B(O)O [Bortezomib] (partner 0.002 µM)
Procedure, shortened: as §1

TPCA-1 + Crizotinib = compound: C1=CC(=CC=C1C2=CC(=C(S2)NC(=O)N)C(=O)N)F [TPCA-1] + C[C@@H](Oc1cc(-c2cnn(C3CCNCC3)c2)cnc1N)c1c(Cl)ccc(F)c1Cl [Crizotinib] (partner 1 µM)
Procedure, shortened: as §1

TPCA-1 + Dasatinib = compound: C1=CC(=CC=C1C2=CC(=C(S2)NC(=O)N)C(=O)N)F [TPCA-1] + Cc1nc(Nc2ncc(C(=O)Nc3c(C)cccc3Cl)s2)cc(N2CCN(CCO)CC2)n1 [Dasatinib] (partner 0.075 µM)
Procedure, shortened: as §1

Cell Line	relative viability ([1]; first compound 0.2 µM)	relative viability ([1]; first compound 0.6325 µM)	relative viability ([1]; first compound 2 µM)	relative viability ([1]; first compound 6.325 µM)	relative viability ([1]; first compound 20 µM)	relative viability (TPCA-1 + Bortezomib; first compound 0.04 µM)	relative viability (TPCA-1 + Bortezomib; first compound 0.1265 µM)	relative viability (TPCA-1 + Bortezomib; first compound 0.4 µM)	relative viability (TPCA-1 + Bortezomib; first compound 1.265 µM)	relative viability (TPCA-1 + Bortezomib; first compound 4 µM)	relative viability (TPCA-1 + Crizotinib; first compound 0.04 µM)	relative viability (TPCA-1 + Crizotinib; first compound 0.1265 µM)	relative viability (TPCA-1 + Crizotinib; first compound 0.4 µM)	relative viability (TPCA-1 + Crizotinib; first compound 1.265 µM)	relative viability (TPCA-1 + Crizotinib; first compound 4 µM)	relative viability (TPCA-1 + Dasatinib; first compound 0.04 µM)	relative viability (TPCA-1 + Dasatinib; first compound 0.1265 µM)	relative viability (TPCA-1 + Dasatinib; first compound 0.4 µM)	relative viability (TPCA-1 + Dasatinib; first compound 1.265 µM)	relative viability (TPCA-1 + Dasatinib; first compound 4 µM)
HCC-15	1.06	1.03	1.03	0.884	1.03	1.21	0.944	1.06	1.01	0.817	0.833	0.81	0.831	0.798	0.563	0.735	0.495	0.592	0.523	0.392
NCI-H661	0.857	0.716	0.858	0.738	0.732	0.651	0.662	0.986	0.753	0.501	0.968	0.889	1.05	0.988	0.825	1	0.838	0.928	0.806	0.394
NCI-H2009	1.04	0.939	1.08	0.736	0.991	1.25	0.921	1.07	0.516	0.536	1.06	1.05	1.03	1.05	0.891	0.395	0.267	0.278	0.223	0.177
ChaGo-K-1	0.998	0.934	0.967	0.559	0.517	0.83	0.995	1.11	0.903	0.377	1.2	1.04	1.17	0.836	0.608	0.754	0.594	0.705	0.561	0.218
COR-L23	1.12	0.983	0.978	0.946	1.01	1.27	0.854	0.983	0.937	0.751	0.686	0.666	0.715	0.532	0.323	0.532	0.434	0.54	0.422	0.42
EMC-BAC-2	1.16	1.08	1.19	0.967	1.02	1.12	1.07	1.11	1.08	0.932	0.737	0.836	0.788	0.755	0.663	0.364	0.352	0.368	0.46	0.343
LCLC-103H	1.1	0.998	1.08	1	1.07	1.07	1.05	1.1	0.987	1.02	1.12	1.03	0.96	1.03	1.03	0.518	0.447	0.481	0.397	0.465
SW 1573	0.985	1	1.09	0.834	0.949	1.07	1.19	1.1	1.11	0.834	0.881	0.754	0.728	0.673	0.622	0.669	0.375	0.476	0.361	0.336

From the supplement of paper PMC10307832
